According to patent US11643421B2, “Process for the preparation of tricyclic PI3K inhibitor compounds and methods for using the same for the treatment of cancer” (priority 2015, dated 2023):
Where two headings read alike, the source gives them in different places.

Columns and labels:
[1] = Phase I dose-escalation study, plasma pharmacokinetics; type: in vivo, human; details: for concentration at 15 day: read-out: Cmin (μM), Mean; for AUC(0-t): read-out: AUC0-24 (μM*hr), Mean; for AUC(0-inf): read-out: AUCinf (μM*hr), Mean
Protocol: Plasma samples for pharmacokinetic (“PK”) analysis were collected on day 1 and day 8 or day 15 of cycle 1. Fluorodeoxyglucose positron emission tomography (“FDG-PET”) was performed at baseline and on-treatment.
Dosing times may have been adjusted to accommodate for time shifts from the home administration schedule (e.g., for clinic visits with PK sampling or traveling), but times were to be adjusted by no more than 4 hours at a time.
For administration under fasted conditions, patients fasted overnight for at least 8 hours before dosing and 2 hours after dosing.
For Cohorts 1-6 (2-30 mg), the single dose on Cycle 1, Day 1 was followed by a 7 day washout-period, after which continuous once daily dosing, for 28 consecutive days, was started on Day 8. Blood samples for Cohorts 1-6 were collected on Day 15 for PK analysis.
All plasma concentration-time data collected in Cycle 1 were analyzed using WinNonlin® (Version 6.4, Pharsight Corp, Mountain View, Calif.) to estimate PK parameters, which included but were not limited to AUC0-last (where AUC refers to the area under the concentration-time curve) and/or AUCinf, Cmax, Cmin, tmax, half-life, CL/F, and accumulation ratio. Estimates for each PK parameter and summary statistics (mean, standard deviation, coefficient of variation, median, minimum, and maximum) were tabulated by dose level and schedule. Nominal time data were used in the analysis, and the linear up/log down trapezoidal method was used for calculating AUC.

GS2 intracranial tumors = experiment: Efficacy in GS2 intracranial model; type: in vivo, mice; details: 15 mg/kg PO daily for 4 weeks, MRI, p<0.01
Description: These U87 and GS2 models are PTEN-deficient, with the GS2 cell line presenting a copy number loss at the PTEN locus (Gunther H S, et al.) with no detectable PTEN protein by western blot (Carlson […], Schroeder […]., “Establishment, maintenance and in vitro and in vivo applications of primary human glioblastoma multiforme (GBM) xenograft models for translational biology studies and drug discovery”, Curr Protoc Pharmacol. 2011; Chapter 14: Unit 14 16). The identity of the two cell lines was confirmed by STR profiling (DNA Diagnostics Center) using cells within 5 passages of those utilized for in vivo studies. […] The differences between treatment groups were evaluated using Student's t test in Prism (Prism 5, GraphPad). […] Body temperature was continuously monitored using a rectal probe and was maintained at 37° C. by a heated-air flow system regulated by in-house LabVIEW controller software. A T2-weighted fast spin echo, multi-slice (FSEMS) sequence was used to detect lesions by MRI. 12-20 axial 0.5-0.8 mm-thick slices were acquired with a 20×20 mm field of view (FOV), and 128×128 matrix, zero-filled to 256×256 mages. TR=3500-4000 ms, TE=9-10 ms, ETL=8, k-zero=4, NEX=8. Tumor volumes were calculated from the T2-weighted FSEMS images using an intensity threshold based region growing tool in MRVision software. […]

[2] = human, plasma, oral, 2 mg once daily, multiple doses, Cycle 1 Day 15
[3] = human, plasma, oral, 4 mg once daily, multiple doses, Cycle 1 Day 15
[4] = human, plasma, oral, 8 mg once daily, multiple doses, Cycle 1 Day 15
[5] = human, plasma, oral, 15 mg once daily, multiple doses, Cycle 1 Day 15
[6] = human, plasma, oral, 20 mg once daily, multiple doses, Cycle 1 Day 15
[7] = human, plasma, oral, 45 mg once daily, multiple doses, Cycle 1 Day 8
[8] = human, plasma, oral, 65 mg once daily, multiple doses, Cycle 1 Day 8
[9] = human, plasma, 2 mg single oral dose, Cycle 1 Day 1
[10] = human, plasma, 4 mg single oral dose, Cycle 1 Day 1
[11] = human, plasma, 8 mg single oral dose, Cycle 1 Day 1
[12] = human, plasma, 15 mg single oral dose, Cycle 1 Day 1
[13] = human, plasma, 20 mg single oral dose, Cycle 1 Day 1
[14] = human, plasma, 30 mg single oral dose, Cycle 1 Day 1
[15] = human, plasma, 45 mg single oral dose, Cycle 1 Day 1
[16] = human, plasma, 65 mg single oral dose, Cycle 1 Day 1

CC1(C)OCCn2c1nc1c(N3CCOCC3)nc(-c3cnc(N)nc3)nc12 [GDC-0084, 5-(6,6-dimethyl-4-morpholino-8,9-dihydro-6H-[1,4]oxazino[3,4-e]purin-2-yl)pyrimidin-2-amine]
concentration at 15 day ([1]; 4 mg once daily, multiple doses, Cycle 1 Day 15): 0.0207 µM | CL/F (L/hr), Mean ([1]; 4 mg single oral dose, Cycle 1 Day 1): 4.87 L/h | concentration at 15 day ([1]; 8 mg once daily, multiple doses, Cycle 1 Day 15): 0.0301 µM | CL/F (L/hr), Mean ([1]; 8 mg single oral dose, Cycle 1 Day 1): 12.4 L/h | concentration at 15 day ([1]; 15 mg once daily, multiple doses, Cycle 1 Day 15): 0.0581 µM | concentration at 15 day ([1]; 20 mg once daily, multiple doses, Cycle 1 Day 15): 0.0635 µM | CL/F (L/hr), Mean ([1]; 20 mg single oral dose, Cycle 1 Day 1): 7.92 L/h | concentration at 15 day ([1]; 30 mg once daily, multiple doses, Cycle 1 Day 15): 0.155 µM | CL/F (L/hr), Mean ([1]; 30 mg single oral dose, Cycle 1 Day 1): 8.22 L/h | concentration at 15 day ([1]; 45 mg once daily, multiple doses, Cycle 1 Day 8): 0.206 µM | concentration at 15 day ([1]; 65 mg once daily, multiple doses, Cycle 1 Day 8): 0.271 µM | half-life ([1]; human, plasma, oral, across Cohorts 1-6 (2 to 30 mg), single dose, read-out: apparent terminal phase t1/2 (converted)): ~18.7 h | Cmax [1, 2]: 0.0331 µM | AUC(0-t) [1, 2]: 0.346 µM·h | concentration at 15 day [1, 2]: 0.00877 µM | Tmax ([1]; human, plasma, oral, 2 mg once daily, multiple doses, Cycle 1 Day 15, read-out: Tmax (hr), Median): 2 h | Cmax [1, 3]: 0.593 µM | AUC(0-t) [1, 3]: 0.833 µM·h | Tmax ([1]; human, plasma, oral, 4 mg once daily, multiple doses, Cycle 1 Day 15, read-out: Tmax (hr), Median): 2 h | Cmax [1, 4]: 0.0883 µM | AUC(0-t) [1, 4]: 1.16 µM·h | Tmax ([1]; human, plasma, oral, 8 mg once daily, multiple doses, Cycle 1 Day 15, read-out: Tmax (hr), Median): 2.5 h | Cmax [1, 5]: 0.156 µM | AUC(0-t) [1, 5]: 2.34 µM·h | Tmax ([1]; human, plasma, oral, 15 mg once daily, multiple doses, Cycle 1 Day 15, read-out: Tmax (hr), Median): 3 h | Cmax [1, 6]: 0.23 µM | AUC(0-t) [1, 6]: 2.87 µM·h | Tmax ([1]; human, plasma, oral, 20 mg once daily, multiple doses, Cycle 1 Day 15, read-out: Tmax (hr), Median): 2 h | Cmax ([1]; human, plasma, oral, 30 mg once daily, multiple doses, Cycle 1 Day 15): 0.332 µM | AUC(0-t) ([1]; human, plasma, oral, 30 mg once daily, multiple doses, Cycle 1 Day 15, n = 5): 5.67 µM·h | Tmax ([1]; human, plasma, oral, 30 mg once daily, multiple doses, Cycle 1 Day 15, read-out: Tmax (hr), Median): 2 h | Cmax [1, 7]: 0.544 µM | AUC(0-t) [1, 7]: 8.06 µM·h | Tmax ([1]; human, plasma, oral, 45 mg once daily, multiple doses, Cycle 1 Day 8, read-out: Tmax (hr), Median): 3.5 h | Cmax [1, 8]: 0.58 µM | AUC(0-t) [1, 8]: 9.01 µM·h | Tmax ([1]; human, plasma, oral, 65 mg once daily, multiple doses, Cycle 1 Day 8, read-out: Tmax (hr), Median): 3 h | half-life ([1]; human, plasma, po, 2 mg, 2 mg single oral dose, Cycle 1 Day 1, read-out: T1/2 (hr), Mean (converted)): 16.9 h | half-life ([1]; human, plasma, po, 4 mg, 4 mg single oral dose, Cycle 1 Day 1, read-out: T1/2 (hr), Mean (converted)): 21.8 h | half-life ([1]; human, plasma, po, 8 mg, 8 mg single oral dose, Cycle 1 Day 1, read-out: T1/2 (hr), Mean (converted)): 18.2 h | half-life ([1]; human, plasma, po, 15 mg, 15 mg single oral dose, Cycle 1 Day 1, read-out: T1/2 (hr), Mean (converted)): 18.1 h | half-life ([1]; human, plasma, po, 20 mg, 20 mg single oral dose, Cycle 1 Day 1, read-out: T1/2 (hr), Mean (converted)): 14.8 h | half-life ([1]; human, plasma, po, 30 mg, 30 mg single oral dose, Cycle 1 Day 1, read-out: T1/2 (hr), Mean (converted)): 22 h | AUC(0-t) [1, 9]: 0.21 µM·h | AUC(0-inf) [1, 9]: 0.365 µM·h | Tmax ([1]; human, plasma, 2 mg single oral dose, Cycle 1 Day 1, read-out: Tmax (hr), Median): 2 h | Cmax [1, 10]: 0.0359 µM | AUC(0-t) [1, 10]: 0.435 µM·h | AUC(0-inf) [1, 10]: 0.833 µM·h | Tmax ([1]; human, plasma, 4 mg single oral dose, Cycle 1 Day 1, read-out: Tmax (hr), Median): 3 h | Cmax [1, 11]: 0.0452 µM | AUC(0-t) [1, 11]: 0.509 µM·h | AUC(0-inf) [1, 11]: 0.974 µM·h | Tmax ([1]; human, plasma, 8 mg single oral dose, Cycle 1 Day 1, read-out: Tmax (hr), Median): 3 h | Cmax [1, 12]: 0.0912 µM | AUC(0-t) [1, 12]: 1.09 µM·h | AUC(0-inf) [1, 12]: 1.97 µM·h | Tmax ([1]; human, plasma, 15 mg single oral dose, Cycle 1 Day 1, read-out: Tmax (hr), Median): 2 h | Cmax [1, 13]: 0.159 µM | AUC(0-t) [1, 13]: 1.9 µM·h | AUC(0-inf) [1, 13]: 2.75 µM·h | Tmax ([1]; human, plasma, 20 mg single oral dose, Cycle 1 Day 1, read-out: Tmax (hr), Median): 2 h | Cmax [1, 14]: 0.174 µM | AUC(0-t) [1, 14]: 2.42 µM·h | AUC(0-inf) [1, 14]: 5.33 µM·h | Tmax ([1]; human, plasma, 30 mg single oral dose, Cycle 1 Day 1, read-out: Tmax (hr), Median): 2 h | Cmax [1, 15]: 0.234 µM | AUC(0-t) [1, 15]: 3.12 µM·h | Tmax ([1]; human, plasma, 45 mg single oral dose, Cycle 1 Day 1, read-out: Tmax (hr), Median): 3 h | Cmax [1, 16]: 0.255 µM | AUC(0-t) [1, 16]: 4.06 µM·h | Tmax ([1]; human, plasma, 65 mg single oral dose, Cycle 1 Day 1, read-out: Tmax (hr), Median): 2.5 h | Tmax ([1]; human, plasma, single oral dose, all cohorts, read-out: median Tmax): ~2 h | dose proportionality of Cmax and AUC0-24 ([1]; single and multiple doses, 2 mg to 65 mg once daily): approximately linear and dose proportional increase in Cmax and AUC0-24 | GS2 tumors smaller than control group (GS2 intracranial tumors): ≈ 40%
